Calls of active or inactive are those of the source. No rule for the calls is given here.

This data set deals with CCRIS mutagenicity, Ames/micronucleus/aberration tests. Kind of data set: CCRIS mutagenicity studies.
Where [1] appears, read: Test System: AMES SALMONELLA TYPHIMURIUM, Strain/Indicator: TA98, Metabolic Activation: NONE, Method: STANDARD PLATE.
Where [2] appears, read: Test System: AMES SALMONELLA TYPHIMURIUM, Strain/Indicator: TA98, Metabolic Activation: RAT, LIVER, S-9, AROCLOR 1254, Method: STANDARD PLATE.
The mark [3] stands for this setting: Test System: AMES SALMONELLA TYPHIMURIUM, Strain/Indicator: TA100, Metabolic Activation: NONE, Method: STANDARD PLATE.
The mark [4] stands for this setting: Test System: AMES SALMONELLA TYPHIMURIUM, Strain/Indicator: TA100, Metabolic Activation: RAT, LIVER, S-9, AROCLOR 1254, Method: STANDARD PLATE.
[5] abbreviates: Test System: AMES SALMONELLA TYPHIMURIUM, Strain/Indicator: TA98, Metabolic Activation: NONE, Method: PREINCUBATION
The mark [6] stands for this setting: Test System: AMES SALMONELLA TYPHIMURIUM, Strain/Indicator: TA100, Metabolic Activation: NONE, Method: PREINCUBATION
Where [7] appears, read: Test System: AMES SALMONELLA TYPHIMURIUM, Strain/Indicator: TA1535, Metabolic Activation: NONE, Method: STANDARD PLATE.
Where [8] appears, read: Test System: AMES SALMONELLA TYPHIMURIUM, Strain/Indicator: TA1535, Metabolic Activation: RAT, LIVER, S-9, AROCLOR 1254, Method: STANDARD PLATE.
Setting [9] is: Test System: AMES SALMONELLA TYPHIMURIUM, Strain/Indicator: TA1537, Metabolic Activation: RAT, LIVER, S-9, AROCLOR 1254, Method: STANDARD PLATE.
Setting [10] is: Test System: AMES SALMONELLA TYPHIMURIUM, Strain/Indicator: TA1538, Metabolic Activation: NONE, Method: STANDARD PLATE.
[11] abbreviates: Test System: AMES SALMONELLA TYPHIMURIUM, Strain/Indicator: TA1538, Metabolic Activation: RAT, LIVER, S-9, AROCLOR 1254, Method: STANDARD PLATE.

For the compound `COc1c(Cl)ccc2oc3cc4c(c(OC)c3c(=O)c12)[C@@H]1C=CO[C@@H]1O4`, the mutagenic call under setting [1] was “inactive; negative”, the mutagenic call under setting [2] was “active; positive”, the mutagenic call under setting [3] was “active; positive” and the mutagenic call under setting [4] was “active; positive”.
For the compound `Nc1ccc(Oc2ccc(N)c(N)c2)cc1`, the mutagenic call under setting [5] was “inactive; negative”; the mutagenic call (Test System: AMES SALMONELLA TYPHIMURIUM, Strain/Indicator: TA98, Metabolic Activation: RAT, LIVER, S-9, PCB, Method: PREINCUBATION) is “active; positive”; the mutagenic call under setting [6] is “inactive; negative”; the mutagenic call (Test System: AMES SALMONELLA TYPHIMURIUM, Strain/Indicator: TA100, Metabolic Activation: RAT, LIVER, S-9, PCB, Method: PREINCUBATION) is “active; positive”.
For `Cc1cc(O)c2c(O)c3c(O)cccc3cc2c1`, the mutagenic call by setting is: under setting [1], “inactive; negative”; under setting [2], “inactive; negative”; under setting [3], “inactive; negative”; under setting [4], “inactive; negative”; under setting [7], “inactive; negative”; under setting [8], “inactive; negative”. Moreover, the mutagenic call is, setting by setting: under setting [9], “active; positive”; under setting [10], “inactive; negative”; under setting [11], “inactive; negative”.
Regarding `N/C(=N\O)c1ccc([N+](=O)[O-])o1`, under setting [3], the mutagenic call is “active; positive”.
With `O[C@H]1c2ccccc2-c2cc3c(ccc4ccccc43)nc2[C@@H]1O`, the mutagenic call is “inactive; negative” (Test System: AMES SALMONELLA TYPHIMURIUM, Strain/Indicator: TA98, Metabolic Activation: GUINEA PIG, LIVER, S-9, 3-METHYLCHOLANTHRENE, Method: STANDARD PLATE); “inactive; negative” (Test System: AMES SALMONELLA TYPHIMURIUM, Strain/Indicator: TA100, Metabolic Activation: GUINEA PIG, LIVER, S-9, 3-METHYLCHOLANTHRENE, Method: STANDARD PLATE); “active; positive” (Test System: CHINESE HAMSTER V-79, Strain/Indicator: V-79/6-THIOGUANINE, Metabolic Activation: GUINEA PIG, LIVER, S-9, 3-METHYLCHOLANTHRENE).
As for `COCC1O[C@@H](O[C@@H]2C(COC)OC(OC)C(OC)C2OC)C(OC)C(OC)C1OC` (some centres not stated), the mutagenic call by setting is: under setting [1], “inactive; negative”; under setting [2], “inactive; negative”; under setting [3], “inactive; negative”; under setting [4], “inactive; negative”; under setting [7], “inactive; negative”; under setting [8], “inactive; negative”. The mutagenic call (Test System: AMES SALMONELLA TYPHIMURIUM, Strain/Indicator: TA1537, Metabolic Activation: NONE, Method: STANDARD PLATE) is “inactive; negative”; the mutagenic call under setting [9] was “inactive; negative”; the mutagenic call under setting [10] is “inactive; negative”; the mutagenic call under setting [11] was “inactive; negative”; the mutagenic call (Test System: E. COLI, Strain/Indicator: WP2, Metabolic Activation: NONE, Method: STANDARD PLATE) was “inactive; negative”; the mutagenic call (Test System: E. COLI, Strain/Indicator: WP2, Metabolic Activation: RAT, LIVER, S-9, AROCLOR 1254, Method: STANDARD PLATE) was “inactive; negative”.
On to `Nc1cccc2c1-c1cccc3cccc-2c13`, for which the mutagenic call by setting is: (Test System: AMES SALMONELLA TYPHIMURIUM, Strain/Indicator: TA98, Metabolic Activation: RAT, LIVER, S-9, AROCLOR 1254 (2 OR 4%), Method: STANDARD PLATE) “active; positive”; (Test System: AMES SALMONELLA TYPHIMURIUM, Strain/Indicator: TA100, Metabolic Activation: RAT, LIVER, S-9, AROCLOR 1254 (2%), Method: STANDARD PLATE) “active; positive”; (Test System: AMES SALMONELLA TYPHIMURIUM, Strain/Indicator: TA1535, Metabolic Activation: RAT, LIVER, S-9, AROCLOR 1254 (2%), Method: STANDARD PLATE) “inactive; negative”; (Test System: AMES SALMONELLA TYPHIMURIUM, Strain/Indicator: TA1537, Metabolic Activation: RAT, LIVER, S-9, AROCLOR 1254 (2%), Method: STANDARD PLATE) “active; positive”.
With `COc1ccccc1CC1CO1` (configuration not stated), the mutagenic call under setting [6] was “active; positive”; the mutagenic call under setting [3] is “active; positive”; the mutagenic call (Test System: AMES SALMONELLA TYPHIMURIUM, Strain/Indicator: TA1535, Metabolic Activation: NONE, Method: PREINCUBATION) was “active; positive”; the mutagenic call under setting [7] was “active; positive”.
Turning to `CCOc1ccc(NC(=O)CC(C)O)cc1` (configuration not stated), the mutagenic call runs as follows: (Test System: AMES SALMONELLA TYPHIMURIUM, Strain/Indicator: TA100, Metabolic Activation: HAMSTER, LIVER, S-9, KANECHLOR 400, Method: PREINCUBATION) “active; positive”; (Test System: AMES SALMONELLA TYPHIMURIUM, Strain/Indicator: TA100, Metabolic Activation: HAMSTER, LIVER, S-9, Method: PREINCUBATION) “inactive; negative”; (Test System: AMES SALMONELLA TYPHIMURIUM, Strain/Indicator: TA100, Metabolic Activation: RAT, LIVER, S-9, KANECHLOR 400, Method: PREINCUBATION) “inactive; negative”; (Test System: AMES SALMONELLA TYPHIMURIUM, Strain/Indicator: TA100, Metabolic Activation: RAT, LIVER, S-9, Method: PREINCUBATION) “inactive; negative”.
As for `O=C(O)[C@H]1OC(Oc2cccc3c2cc2ccc4cccc5ccc3c2c45)[C@H](O)[C@@H](O)[C@@H]1O` (some centres not stated), the mutagenic call was “inactive; negative” under setting [5] and “inactive; negative” (Test System: AMES SALMONELLA TYPHIMURIUM, Strain/Indicator: TA98, Metabolic Activation: RAT, LUNG, S-9, Method: PREINCUBATION).

Values taken from PubChem BioAssay AID1259407 (Chemical Carcinogenesis Research Information System (CCRIS), 2018).
